In patent publication US11130741B2 (Bioimics AB, priority 2016, dated 2021) one finds IC50 and MIC data, which are given here for 30 molecules.

For test [1], the system named is E. coli RNase P RNA, M1 RNA. As to the kind of experiment: Inhibition of bacterial RNase P activity, IC50 determination (cleavage of pATSerUG by M1 RNA). It is filed as biochemical. The following applies: NI = No inhibition.
Test [2] has as its system Escherichia coli (ATCC25922). As to the kind of experiment: MIC, broth microdilution (CLSI), Escherichia coli ATCC25922.
The test system of test [3] is Staphylococcus aureus (ATCC25923). As to the kind of experiment: MIC, broth microdilution (CLSI), Staphylococcus aureus ATCC25923. A general note: Dilution methods test growth across graded concentrations, often in twofold steps.
Experimental: Initial minimal inhibitory concentration (MIC) tests were made on two bacterial strains: • Escherichia coli (ATCC25922) • Staphylococcus aureus (ATCC25923).
Minimal Inhibitory Concentration (MIC)
MIC values were determined using the standard broth microdilution procedure based on the guidelines by the Clinical and Laboratory Standards Institute (CLSI). Briefly, the compounds were dissolved in DMSO to 10 mM. They were diluted in cation-adjusted Mueller-Hinton broth (CAMHB) to four times the highest concentration tested. A serial 2-fold dilution in CAMHB was done in microdilution plates. The inoculum of bacterial strain to be tested was prepared by making a suspension of colonies from an 18 to 24 hours old plate in CAMHB. The inoculum was diluted so that, after inoculation, each well contained approximately 5×10^5 CFU/mL. To a volume of 50 μl compound in CAMHB an equal volume of inoculum was added. The tray was sealed in a plastic bag and incubated at 35° C. for 16 to 20 hours. To aid in the detection of growth the dye resazurin was added to a final concentration 0.001% and incubated at room temperature for 1 h. Reduction of resazurin, and therefore bacterial growth, was seen as a change from blue to pink.
Where [4] appears, read: ATCC25922, read-out: E. coli MIC, Table 15, NI = No inhibition.
Setting [5] is: ATCC25923, read-out: S. aureus ("Clinical") MIC.

Values after ≈ are worked out from the molar mass of the structure shown. Where a name gives a salt, the structure may show the parent alone. Read-outs that look alike come from different tables or passages of the source.

Regarding `NCCNC(=S)Nc1cc(C(F)(F)F)cc2c1Nc1ccccc1S2` [compound 98, 1-(2-aminoethyl)-3-(3-(trifluoro-methyl)-10H-phenothiazin-1-yl)thiourea], the half-inhibitory concentration (IC50) (commonly the concentration that gives 50% inhibition) in test [1] was more than 100 µM. In addition, the minimal inhibitory concentration (MIC) – broadly, the smallest concentration in the dilution series that meets the test's criterion for growth inhibition – in test [2] (setting [4]) amounted to 16 µg/mL (≈ 41.6 µM); in test [3] (setting [5]), 8 µg/mL (≈ 20.8 µM).

`N[C@@H]1CCC[C@H](C(=O)Nc2cc(C(F)(F)F)cc3c2Nc2ccccc2S3)C1` [compound 125, (1S,3R)-3-amino-N-(3-(trifluoromethyl)-10H-phenothiazin-1-yl)cyclohexane-carboxamide] displayed an IC50 in test [1] of 20 µM. The MIC in test [2] (setting [4]) worked out at 26 µg/mL (≈ 63.8 µM); in test [3] (setting [5]) it was 13 µg/mL (≈ 31.9 µM).

Regarding `CN(C)CCCN1c2ccccc2Sc2cc(-c3nc4ccccc4[nH]3)ccc21` [compound 137, 3-(3-(1H-benzo[d]imidazol-2-yl)-10H-phenothiazin-10-yl)-N,N-dimethylpropan-1-amine], half-maximal inhibition in test [1] (IC50) required 160 µM. Moreover, the MIC in test [2] (setting [4]) was more than 100 µg/mL; in test [3] (setting [5]) it was 13 µg/mL (≈ 32.5 µM).

`CN1CCN(CCCN2c3ccccc3Sc3cc(C(F)(F)F)cc(N)c32)CC1` [compound 88, 10-(3-(4-methylpiperazin-1-yl)propyl)-3-(trifluoromethyl)-10H-phenothiazin-1-amine] showed an IC50 in test [1] of more than 100 µM. The MIC in test [2] (setting [4]) was more than 100 µg/mL; in test [3] (setting [5]), 27 µg/mL (≈ 63.9 µM).

Molecule `NCCN1CCC(C(=O)Nc2cc(C(F)(F)F)cc3c2Nc2ccccc2S3)CC1` [compound 155, trifluoroacetate] registered an IC50 in test [1] (trifluoroacetate) of 53 µM. In addition, the MIC in test [2] (ATCC25922, read-out: E. coli MIC) is 35 µg/mL; in test [3] (ATCC25923, read-out: S. aureus ("Clinical") MIC, Table 15) it was 35 µg/mL.

Regarding `FC(F)(F)c1cc(NC2CCNC2)c2c(c1)Sc1ccccc1N2` (stereo not drawn) [compound 174, N-(pyrrolidin-3-yl)-3-(trifluoromethyl)-10H-phenothiazin-1-amine], it took 50 µM to reach half-maximal inhibition in test [1] (IC50). Moreover, the MIC in test [2] (setting [4]) worked out at 11 µg/mL (≈ 31.3 µM); in test [3] (setting [5]), 3 µg/mL (≈ 8.54 µM).

In test [1], `NCCN1CCCC(C(=O)Nc2cc(C(F)(F)F)cc3c2Nc2ccccc2S3)C1` (stereo not drawn) [compound 203] returned an IC50 of 4 µM. In addition, the MIC in test [2] (setting [4]) and in test [3] (setting [5]) was 14 µg/mL (≈ 32.1 µM) in each case.

`NC1CCC(CNc2cc(C(F)(F)F)cc3c2Nc2ccccc2S3)CC1` (stereo not drawn) [compound 108, N-((4-aminocyclohexyl)methyl)-3-(trifluoromethyl)-10H-phenothiazin-1-amine] gave an IC50 in test [1] of more than 100 µM. The MIC in test [2] (setting [4]) worked out at 32 µg/mL (≈ 81.3 µM); in test [3] (setting [5]), 8 µg/mL (≈ 20.3 µM).

Turning to `NCC1CCCC(C(=O)Nc2cc(C(F)(F)F)cc3c2Nc2ccccc2S3)C1` (stereo not drawn) [compound 149, 3-(aminomethyl)-N-(3-(trifluoromethyl)-10H-phenothiazin-1-yl)cyclohexane-carboxamide], inhibition in test [1] was half-maximal at 15 µM (IC50). Further, the MIC in test [2] (setting [4]) turned out to be 54 µg/mL (≈ 128 µM); in test [3] (setting [5]), 13 µg/mL (≈ 30.8 µM).

The molecule `CN(C)CCCN1c2ccccc2Sc2cc(-c3ccc4[nH]ccc4c3)ccc21` [compound 121, 3-(3-(1H-indol-5-yl)-10H-phenothiazin-10-yl)-N,N-dimethylpropan-1-amine] yielded an IC50 in test [1] of more than 100 µM. The figures for the MIC in test [2] (setting [4]) and in test [3] (setting [5]) were more than 100 µg/mL and 6 µg/mL (≈ 15 µM), respectively.

For the molecule `Nc1cccc(C(=O)Nc2cc(C(F)(F)F)cc3c2Nc2ccccc2S3)c1` [compound 134, 3-amino-N-(3-(trifluoromethyl)-10H-phenothiazin-1-yl)benzamide], in test [1], the IC50 is more than 100 µM. The MIC in test [2] (setting [4]) is more than 100 µg/mL; in test [3] (setting [5]) it was 6 µg/mL (≈ 14.9 µM).

Take `CN1c2ccccc2Sc2cc(C(F)(F)F)cc(NC3CCN(CCN)CC3)c21` [compound 218, N-(1-(2-aminoethyl)piperidin-4-yl)-10-methyl-3-(trifluoromethyl)-10H-phenothiazin-1-amine]: in test [1], the midpoint of inhibition, the IC50, lay at 68 µM. The MIC in test [2] (setting [4]) and in test [3] (setting [5]) was 7 µg/mL (≈ 16.6 µM) throughout.

For the molecule `CNCCN1CCC(Nc2cc(CN)cc3c2Nc2ccccc2S3)CC1.O=C(O)C(F)(F)F` [compound 224, 3-(aminomethyl)-N-(1-(2-(methylamino)ethyl)piperidin-4-yl)-10H-phenothiazin-1-amine 2,2,2-trifluoroacetate salt], the IC50 in test [1] is 68 µM. Further, the MIC in test [2] (setting [4]) and in test [3] (setting [5]) was 64 µg/mL throughout.

`NC[C@H]1CC[C@H](C(=O)Nc2cc(C(F)(F)F)cc3c2Nc2ccccc2S3)CC1` [compound 120, (1R,4R)-4-(aminomethyl)-N-(3-(trifluoromethyl)-10H-phenothiazin-1-yl)cyclohexane-carboxamide] registered an IC50 in test [1] of 12 µM. The MIC in test [2] (setting [4]) is more than 100 µg/mL; in test [3] (setting [5]) it was 27 µg/mL (≈ 64.1 µM).

In the case of `CN(C)CCCN1c2ccccc2Sc2cc(-c3ccc4[nH]cnc4c3)ccc21` [compound 117, 3-(3-(1H-benzo[d]imidazol-5-yl)-10H-phenothiazin-10-yl)-N,N-dimethylpropan-1-amine], in test [1], the IC50 was more than 100 µM. In addition, the minimal inhibitory concentration (MIC) in test [2] (setting [4]) was more than 100 µg/mL; in test [3] (setting [5]) it was 26 µg/mL (≈ 64.9 µM).

Consider `NCCN1CCC(Nc2cc(Cl)cc3c2Nc2ccccc2S3)CC1` [compound 214, N-(1-(2-aminoethyl)piperidin-4-yl)-3-chloro-10H-phenothiazin-1-amine], for which the IC50 in test [1] was more than 100 µM. The MIC in test [2] (setting [4]) was 24 µg/mL (≈ 64 µM); in test [3] (setting [5]), 12 µg/mL (≈ 32 µM).

On to `CN(C)CCCN1c2ccccc2Sc2cc(-c3ccccc3)ccc21` [compound 110, N,N-dimethyl-3-(3-phenyl-10H-phenothiazin-10-yl)propan-1-amine], for which the 50% inhibitory concentration (IC50) in test [1] was more than 100 µM. The MIC is more than 100 µg/mL in test [2] (setting [4]) and 6 µg/mL (≈ 16.6 µM) in test [3] (setting [5]).

Take `NCCN1CCC(Nc2cc(C(F)(F)F)cc3c2Nc2ccc(CN)cc2S3)CC1.O=C(O)C(F)(F)F.O=C(O)C(F)(F)F` [compound 227, N-(1-(2-Aminoethyl)piperidin-4-yl)-7-(aminomethyl)-3-(trifluoromethyl)-10H-phenothiazin-1-amine bis(2,2,2-trifluoroacetate)]: it took 7 µM to reach half-maximal inhibition in test [1] (IC50). Besides, the MIC in test [2] (setting [4]) was determined as 43 µg/mL; in test [3] (setting [5]), 5 µg/mL.

`NCCN1CCC(C(=O)Nc2cc(C(F)(F)F)cc3c2Nc2ccccc2S3)CC1` [compound 199] had an IC50 in test [1] of 65 µM. Further, the MIC in test [2] (setting [4]) and in test [3] (setting [5]) was 28 µg/mL (≈ 64.1 µM) throughout.

In test [1], `O=C(Nc1cc(C(F)(F)F)cc2c1Nc1ccccc1S2)C1CCCNC1` (stereo not drawn) [compound 91, N-(3-(trifluoromethyl)-10H-phenothiazin-1-yl)piperidine-3-carboxamide] had an IC50 of more than 100 µM. Also, the MIC in test [2] (setting [4]) was found to be 32 µg/mL (≈ 81.3 µM); in test [3] (setting [5]), 8 µg/mL (≈ 20.3 µM).

In test [1], `O=C(CC1CCC(F)(F)CC1)Nc1cc(C(F)(F)F)cc2c1Nc1ccccc1S2` [compound 132, 2-(4,4-difluorocyclo-hexyl)-N-(3-(trifluoromethyl)-10H-phenothiazin-1-yl)acetamide] displayed an IC50 of more than 100 µM. Further, the MIC in test [2] (setting [4]) was more than 100 µg/mL; in test [3] (setting [5]), 4 µg/mL (≈ 9.04 µM).

For the molecule `FC(F)(F)c1cc(NC2CCNCC2)c2c(c1)Sc1cc(Cl)ccc1N2` [compound 223, 7-chloro-N-(piperidin-4-yl)-3-(trifluoromethyl)-10H-phenothiazin-1-amine], 24 µM corresponded to half-maximal inhibition in test [1] (IC50). Besides, the values for the MIC in test [2] (setting [4]) and in test [3] (setting [5]) were 6 µg/mL (≈ 15 µM) and 3 µg/mL (≈ 7.5 µM), respectively.

Take `NC1CCCC(C(=O)Nc2cc(C(F)(F)F)cc3c2Nc2ccccc2O3)C1` (stereo not drawn) [compound 156, 3-amino-N-(3-(trifluoromethyl)-10H-phenoxazin-1-yl)cyclohexane-carboxamide]: the IC50 in test [1] was more than 100 µM. In addition, the values for the MIC in test [2] (setting [4]) and in test [3] (setting [5]) were 25 µg/mL (≈ 63.9 µM) and 13 µg/mL (≈ 33.2 µM), respectively.

For the molecule `NC1CCCC(Nc2cc(C(F)(F)F)cc3c2Nc2ccccc2S3)C1` (stereo not drawn) [compound 204, N1-(3-(trifluoromethyl)-10H-phenothiazin-1-yl)cyclohexane-1,3-diamine], in test [1], 8 µM corresponded to half-maximal inhibition (IC50). Moreover, the values for the MIC in test [2] (setting [4]) and in test [3] (setting [5]) were 12 µg/mL (≈ 31.6 µM) and 3 µg/mL (≈ 7.91 µM), respectively.

The molecule `NC[C@H]1CC[C@H](C(=O)Nc2cc(C(F)(F)F)cc3c2Nc2ccccc2O3)CC1` [compound 160, (1r,4r)-4-(aminomethyl)-N-(3-(trifluoromethyl)-10H-phenoxazin-1-yl)cyclohexane-carboxamide] yielded an IC50 in test [1] of 60 µM. The values for the MIC in test [2] (setting [4]) and in test [3] (setting [5]) were 52 µg/mL (≈ 128 µM) and 26 µg/mL (≈ 64.1 µM), respectively.

`NCCCNC1CCCC(C(=O)Nc2cc(C(F)(F)F)cc3c2Nc2ccccc2S3)C1` (stereo not drawn) [compound 162, 3-((3-aminopropyl)amino)-N-(3-(trifluoromethyl)-10H-phenothiazin-1-yl)cyclohexane-carboxamide]: in test [1], the IC50 was 50 µM. Moreover, the MIC was more than 100 µg/mL in test [2] (setting [4]) and 30 µg/mL (≈ 64.6 µM) in test [3] (setting [5]).

In turn, `NCCN(CCN)CCN1CCC(Nc2cc(C(F)(F)F)cc3c2Nc2ccccc2S3)CC1.O=C(O)C(F)(F)F` [compound 216, N1-(2-aminoethyl)-N1-(2-(4-((3-(trifluoromethyl)-10H-phenothiazin-1-yl)amino)piperidin-1-yl)ethyl)ethane-1,2-diamine 2,2,2-trifluoroacetate salt] had an IC50 in test [1] of 5 µM. In addition, the MIC in test [2] (setting [4]) is 19 µg/mL; in test [3] (setting [5]), 5 µg/mL.

`O=C(Nc1cc(C(F)(F)F)cc2c1Nc1ccccc1S2)C1CNC1` [compound 188, N-(3-(trifluoromethyl)-10H-phenothiazin-1-yl)azetidine-3-carboxamide] displayed an IC50 in test [1] of more than 100 µM. Also, the MIC was found to be 23 µg/mL (≈ 62.9 µM) in test [2] (setting [4]) and 12 µg/mL (≈ 32.8 µM) in test [3] (setting [5]).

As to `FC(F)(F)c1cc(NC2CCCNC2)c2c(c1)Sc1ccccc1N2` (stereo not drawn) [compound 172, N-(piperidin-3-yl)-3-(trifluoromethyl)-10H-phenothiazin-1-amine], 27 µM corresponded to half-maximal inhibition in test [1] (IC50). The MIC in test [2] (setting [4]) was 23 µg/mL (≈ 62.9 µM); in test [3] (setting [5]), 6 µg/mL (≈ 16.4 µM).

With `CN(C)CCCN1c2ccccc2Sc2cc(C3CC3)ccc21` [compound 116, 3-(3-cyclopropyl-10H-phenothiazin-10-yl)-N,N-dimethylpropan-1-amine], the IC50 in test [1] was more than 100 µM. Besides, the MIC in test [2] (setting [4]) is more than 100 µg/mL; in test [3] (setting [5]), 42 µg/mL (≈ 129 µM).
